Tested on: GST1 gene
Experiment: GST1 gene expression in the mesenteron after artificial diet containing gossypol
Assay type: in vivo, cotton bollworm
Conditions: 5-day old larvae, 1 day, artificial diet with 1 mg/g gossypol (FIG. 7A)
Description: FIG. 7A show the change in GST 1 gene expression in the mesenteron of 5-day old cotton bollworm with the same growth vigor 1 day after eating artificial diet containing 1 mg/g gossypol. Lane 1 and 2 are cotton bollworm eating artificial diet with or without 1 mg/g gossypol respectively.

**Q.** For Cc1cc2c(C(C)C)c(O)c(O)c(C=O)c2c(O)c1-c1c(C)cc2c(C(C)C)c(O)c(O)c(C=O)c2c1O [gossypol], which “GST1 gene expression in the mesenteron” value is on record?
**A.** Its value is “no significant effect”.
